Patent US20260092071A1, “COMPOUNDS AND COMPOSITIONS AS SMARCA2/4 DEGRADERS AND USES THEREOF” (REGENTS OF THE UNIVERSITY OF MICHIGAN, priority 2022, published 2026)
Where two headings read alike, the source gives them in different places.

Experiments:
SMARCA2 = SMARCA2 (Homo sapiens, UniProt P51531); experiment: HiBiT assay for protein degradation, Hela SMARCA2-HiBiT cells (A series); type: cell-based; set-up: Hela cells were genetically modified via CRISPR/Cas9 to fuse HiBiT to the carboxy terminus of SMARCA2; host or cells: HeLa (CRISPR/Cas9 HiBiT knock-in)
Summary of the method: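 HeLa cells engineered by CRISPR/Cas9 to carry a HiBiT tag fused to the C-terminus of SMARCA2 (Promega CS302365) were grown in DMEM supplemented with FBS and penicillin-streptomycin. After treatment, remaining SMARCA2 protein was quantified with the Nano-Glo® HiBiT Lytic Detection Assay (Promega N3050), and curves were fitted in GraphPad Prism.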

SMARCA4 = SMARCA4 (Homo sapiens, UniProt P51532); experiment: HiBiT assay for protein degradation, Hela SMARCA4-HiBiT cells (A series); type: cell-based; set-up: fuse HiBiT to the carboxy terminus of SMARCA2 (Promega CS302365) or SMARCA4 (Promega CS3023225); host or cells: HeLa (CRISPR/Cas9 HiBiT knock-in); conditions: for DC50: read-out: SMARC A4 Hela HiBit DC50
Summary of the method: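 HeLa cells engineered by CRISPR/Cas9 to carry a HiBiT tag fused to the C-terminus of SMARCA4 (Promega CS3023225) were grown in DMEM supplemented with FBS and penicillin-streptomycin. After compound exposure, remaining SMARCA4 protein was quantified using the Nano-Glo® HiBiT Lytic Detection Assay (Promega N3050), and curves were fitted in GraphPad Prism.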

[1] = HeLa, read-out: SMARC A2 Hela HiBit Dmax (%)
[2] = Hela SMARCA2-HiBiT cells, 24 hours treatment; read-out: SMARC A2 Hela HiBit DC50
[3] = Hela SMARCA4-HiBiT cells, 24 hours treatment
[4] = Hela SMARCA2-HiBiT cells, 24 hours treatment; read-out: SMARC A2 Hela HiBit Dmax (%)
[5] = Hela SMARCA4-HiBiT cells, 24 hours treatment, read-out: SMARC A4 Hela HiBit Dmax
[6] = Hela SMARCA2-HiBiT cells, 24 hours treatment
[7] = read-out: SMARC A2 Hela HiBit DC50

SMARCA2, sequence (P51531 whole entry, the tested form may be a part): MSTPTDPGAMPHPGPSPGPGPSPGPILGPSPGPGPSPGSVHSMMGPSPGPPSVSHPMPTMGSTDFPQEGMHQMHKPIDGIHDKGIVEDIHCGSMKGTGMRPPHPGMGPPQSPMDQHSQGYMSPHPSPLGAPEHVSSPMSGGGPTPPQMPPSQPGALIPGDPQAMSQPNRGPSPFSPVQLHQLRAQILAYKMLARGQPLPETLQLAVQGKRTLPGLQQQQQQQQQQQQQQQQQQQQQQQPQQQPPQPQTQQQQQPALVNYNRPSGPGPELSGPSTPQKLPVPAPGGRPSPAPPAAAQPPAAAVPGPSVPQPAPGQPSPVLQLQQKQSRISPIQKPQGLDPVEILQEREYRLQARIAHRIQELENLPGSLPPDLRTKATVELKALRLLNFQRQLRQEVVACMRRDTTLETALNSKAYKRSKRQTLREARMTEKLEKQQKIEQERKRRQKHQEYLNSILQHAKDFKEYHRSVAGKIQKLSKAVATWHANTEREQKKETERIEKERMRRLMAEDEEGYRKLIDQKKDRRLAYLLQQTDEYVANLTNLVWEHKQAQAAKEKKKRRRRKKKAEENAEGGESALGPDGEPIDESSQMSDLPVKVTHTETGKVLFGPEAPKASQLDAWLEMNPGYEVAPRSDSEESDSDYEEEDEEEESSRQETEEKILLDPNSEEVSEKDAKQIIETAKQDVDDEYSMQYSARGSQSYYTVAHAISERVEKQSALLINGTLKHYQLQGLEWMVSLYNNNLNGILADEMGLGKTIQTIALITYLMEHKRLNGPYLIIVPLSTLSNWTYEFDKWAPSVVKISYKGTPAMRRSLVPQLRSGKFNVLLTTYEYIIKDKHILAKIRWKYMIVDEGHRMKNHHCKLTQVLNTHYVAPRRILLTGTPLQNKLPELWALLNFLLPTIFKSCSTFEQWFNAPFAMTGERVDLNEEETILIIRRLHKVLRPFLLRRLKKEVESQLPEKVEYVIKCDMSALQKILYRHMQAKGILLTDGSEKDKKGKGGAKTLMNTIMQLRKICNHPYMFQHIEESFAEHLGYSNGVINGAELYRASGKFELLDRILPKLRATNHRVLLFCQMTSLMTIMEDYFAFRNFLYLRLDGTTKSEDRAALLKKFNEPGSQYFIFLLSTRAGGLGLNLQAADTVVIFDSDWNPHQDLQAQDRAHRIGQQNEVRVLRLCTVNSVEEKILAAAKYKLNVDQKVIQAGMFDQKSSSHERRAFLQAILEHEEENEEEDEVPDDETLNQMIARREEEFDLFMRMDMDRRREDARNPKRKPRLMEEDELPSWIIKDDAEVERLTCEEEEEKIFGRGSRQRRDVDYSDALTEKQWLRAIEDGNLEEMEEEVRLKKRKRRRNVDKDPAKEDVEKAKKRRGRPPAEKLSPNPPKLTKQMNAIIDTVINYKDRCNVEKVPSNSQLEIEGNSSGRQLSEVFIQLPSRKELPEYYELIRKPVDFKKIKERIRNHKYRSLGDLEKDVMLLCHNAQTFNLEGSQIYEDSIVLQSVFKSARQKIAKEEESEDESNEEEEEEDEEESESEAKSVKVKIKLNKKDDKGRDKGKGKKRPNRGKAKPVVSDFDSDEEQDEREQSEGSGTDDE
SMARCA4, sequence (P51532 whole entry, the tested form may be a part): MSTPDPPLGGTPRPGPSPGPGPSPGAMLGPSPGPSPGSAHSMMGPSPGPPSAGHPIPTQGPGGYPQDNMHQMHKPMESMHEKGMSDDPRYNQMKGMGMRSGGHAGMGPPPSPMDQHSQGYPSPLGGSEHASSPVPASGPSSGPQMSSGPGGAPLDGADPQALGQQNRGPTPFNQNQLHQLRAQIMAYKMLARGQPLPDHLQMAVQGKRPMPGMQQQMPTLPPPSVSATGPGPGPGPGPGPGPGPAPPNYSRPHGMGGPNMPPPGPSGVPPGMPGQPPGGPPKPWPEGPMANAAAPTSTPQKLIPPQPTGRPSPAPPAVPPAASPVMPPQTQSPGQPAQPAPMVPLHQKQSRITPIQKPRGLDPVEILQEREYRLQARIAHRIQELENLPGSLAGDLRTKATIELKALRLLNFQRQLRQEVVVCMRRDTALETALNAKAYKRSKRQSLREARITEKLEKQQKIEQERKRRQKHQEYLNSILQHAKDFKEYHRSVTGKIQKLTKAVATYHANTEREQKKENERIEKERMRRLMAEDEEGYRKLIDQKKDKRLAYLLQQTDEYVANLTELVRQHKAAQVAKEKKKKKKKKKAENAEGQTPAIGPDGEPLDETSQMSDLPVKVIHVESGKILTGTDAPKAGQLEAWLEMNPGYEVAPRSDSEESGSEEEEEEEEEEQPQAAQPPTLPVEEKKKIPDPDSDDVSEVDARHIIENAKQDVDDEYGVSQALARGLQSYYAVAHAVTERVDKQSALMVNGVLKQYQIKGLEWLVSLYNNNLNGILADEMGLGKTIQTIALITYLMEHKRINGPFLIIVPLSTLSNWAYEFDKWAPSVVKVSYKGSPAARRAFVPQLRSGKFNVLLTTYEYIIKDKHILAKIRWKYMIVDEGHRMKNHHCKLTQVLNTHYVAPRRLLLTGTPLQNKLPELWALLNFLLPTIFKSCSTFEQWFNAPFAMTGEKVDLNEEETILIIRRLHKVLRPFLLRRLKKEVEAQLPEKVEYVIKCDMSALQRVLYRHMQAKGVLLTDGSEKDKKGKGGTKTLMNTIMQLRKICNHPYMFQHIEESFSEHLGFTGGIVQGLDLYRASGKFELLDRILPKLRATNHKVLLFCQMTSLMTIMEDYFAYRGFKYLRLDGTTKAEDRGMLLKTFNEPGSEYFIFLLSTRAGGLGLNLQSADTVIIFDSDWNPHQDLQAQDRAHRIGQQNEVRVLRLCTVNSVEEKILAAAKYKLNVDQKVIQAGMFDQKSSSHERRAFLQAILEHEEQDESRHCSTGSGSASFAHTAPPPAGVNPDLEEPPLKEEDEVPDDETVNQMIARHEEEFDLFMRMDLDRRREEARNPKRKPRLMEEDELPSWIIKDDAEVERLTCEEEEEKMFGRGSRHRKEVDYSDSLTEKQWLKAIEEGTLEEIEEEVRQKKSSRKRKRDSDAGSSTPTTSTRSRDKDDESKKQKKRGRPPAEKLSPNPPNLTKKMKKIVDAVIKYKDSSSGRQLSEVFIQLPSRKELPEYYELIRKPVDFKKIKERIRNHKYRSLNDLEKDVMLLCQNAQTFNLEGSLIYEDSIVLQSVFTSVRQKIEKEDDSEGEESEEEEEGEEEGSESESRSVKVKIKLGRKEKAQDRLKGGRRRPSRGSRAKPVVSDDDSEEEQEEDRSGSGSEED

`Cc1ncsc1-c1ccc([C@H](C)NC(=O)[C@@H]2C[C@@H](O)CN2C(=O)[C@@H](n2cc([C@H]3CC[C@H](CN4CCC(c5ccc6c(n5)-n5c(nc(=O)c7c(Br)cccc75)C65CCCCC5)CC4)CC3)nn2)C(C)(C)C)cc1` [Compound A50, (2S,4R)-1-((S)-2-(4-((1r,4S)-4-((4-(4′-bromo-5′-oxo-5′H-spiro[cyclohexane-1,7′-pyrido[3′,2′: 4,5]pyrrolo[1,2-a]quinazolin]-10′-yl)piperidin-1-yl)methyl)cyclohexyl)-1H-1,2,3-triazol-1-yl)-3,3-dimethylbutanoyl)-4-hydroxy-N—((S)-1-(4-(4-methylthiazol-5-yl)phenyl)ethyl)pyrrolidine-2-carboxamide] was tested, and the Dmax (SMARCA2; [1]) was > 90%, the DC50 (SMARCA2; [2]) was < 100 nM and the “SMARC A4 Hela HiBit DC50(nM)” value (SMARCA4; [3]) was “No Fit”.
In the case of `Cc1ncsc1-c1ccc([C@H](C)NC(=O)[C@@H]2C[C@@H](O)CN2C(=O)[C@@H](n2cc(CN3CCC(c4ccc5c(c4)-n4c(nc(=O)c6c(Br)cccc64)C54CCCCC4)CC3)nn2)C(C)(C)C)cc1` [Compound A43, (2S,4R)-1-((S)-2-(4-((4-(4′-bromo-5′-oxo-5′H-spiro[cyclohexane-1,7′-indolo[1,2-a]quinazolin]-10′-yl)piperidin-1-yl)methyl)-1H-1,2,3-triazol-1-yl)-3,3-dimethylbutanoyl)-4-hydroxy-N—((S)-1-(4-(4-methylthiazol-5-yl)phenyl)ethyl)pyrrolidine-2-carboxamide], the DC50 (SMARCA2; [2]) is reported as < 100 nM, the Dmax (SMARCA2; [4]) is reported as > 90% and the DC50 (SMARCA4; [3]) is reported as < 100 nM. For the same compound, the Dmax (SMARCA4; Hela SMARCA4-HiBiT cells, 24 hours treatment, read-out: SMARC A4 Hela HiBit Dmax(%)) was 70 to 90%.
`Cc1ncsc1-c1ccc([C@H](CC(=O)N2CCC3(CCC(N4CCC(c5ccc6c(c5)-n5c(nc(=O)c7c(Br)cccc75)C65CCCCC5)CC4)CC3)CC2)NC(=O)[C@@H]2C[C@@H](O)CN2C(=O)[C@@H](n2cc(C3CC3)nn2)C(C)(C)C)cc1` [Compound A144, (2S,4R)—N—((S)-3-(9-(4-(4′-bromo-5′-oxo-5′H-spiro[cyclohexane-1,7′-indolo[1,2-a]quinazolin]-10′-yl)piperidin-1-yl)-3-azaspiro[5.5]undecan-3-yl)-1-(4-(4-methylthiazol-5-yl)phenyl)-3-oxopropyl)-1-((S)-2-(4-cyclopropyl-1H-1,2,3-triazol-1-yl)-3,3-dimethylbutanoyl)-4-hydroxypyrrolidine-2-carboxamide] was tested, and the DC50 (SMARCA2; [2]) was < 10 nM, the Dmax (SMARCA2; [4]) was > 90% and the DC50 (SMARCA4; [3]) was 10 to 100 nM. The Dmax (SMARCA4; [5]) was 70 to 90%.
With `Cc1ncsc1-c1ccc([C@H](CN2CCC3(COC3)C2)NC(=O)[C@@H]2C[C@@H](O)CN2C(=O)[C@@H](n2cc([C@H]3CC[C@H](CN4CCC(c5ccc6c(c5)-n5c(nc(=O)c7c(Cl)cccc75)C6(C)C)CC4)CC3)nn2)C(C)(C)C)cc1` [Compound A99, (2S,4R)-1-((S)-2-(4-((1r,4S)-4-((4-(4-chloro-7,7-dimethyl-5-oxo-5,7-dihydroindolo[1,2-a]quinazolin-10-yl)piperidin-1-yl)methyl)cyclohexyl)-1H-1,2,3-triazol-1-yl)-3,3-dimethylbutanoyl)-4-hydroxy-N—((R)-1-(4-(4-methylthiazol-5-yl)phenyl)-2-(2-oxa-6-azaspiro[3.4]octan-6-yl)ethyl)pyrrolidine-2-carboxamide] the DC50 (SMARCA2; [2]) was < 10 nM, the Dmax (SMARCA2; [4]) was > 90% and the DC50 (SMARCA4; [3]) was > 1000 nM. For the same compound, the Dmax (SMARCA4; [5]) was < 50%.
`Cc1ncsc1-c1ccc([C@H](C)NC(=O)[C@@H]2C[C@@H](O)CN2C(=O)[C@@H](NC(=O)[C@H]2CC[C@H](CN3CCC(c4ccc5c(c4)-n4c(nc(=O)c6c(Cl)cccc64)C54CCCCC4)CC3)CC2)C(C)(C)C)cc1` [Compound A42, (2S,4R)-1-((S)-2-((1r,4S)-4-((4-(4′-chloro-5′-oxo-5′H-spiro[cyclohexane-1,7′-indolo[1,2-a]quinazolin]-10′-yl)piperidin-1-yl)methyl)cyclohexane-1-carboxamido)-3,3-dimethylbutanoyl)-4-hydroxy-N—((S)-1-(4-(4-methylthiazol-5-yl)phenyl)ethyl)pyrrolidine-2-carboxamide] was tested, and the Dmax (SMARCA2; [4]) was 70 to 90%, the DC50 (SMARCA2; read-out: SMARC A2 Hela HiBit DC50; Hela SMARCA2-HiBiT cells, 24 hours treatment) was < 100 nM and the “SMARC A4 Hela HiBit DC50(nM)” value (SMARCA4; [3]) was “No Fit”.
For `Cc1ncsc1-c1ccc([C@H](C)NC(=O)[C@@H]2C[C@@H](O)CN2C(=O)[C@@H](n2cc([C@H]3CC[C@H](CN4CCC(c5ccc6c(n5)-n5c(nc(=O)c7c(Cl)cccc75)C65CCCCC5)CC4)CC3)nn2)C(C)(C)C)cc1` [Compound A78, (2S,4R)-1-((S)-2-(4-((1r,4S)-4-((4-(4′-chloro-5′-oxo-5′H-spiro[cyclohexane-1,7′-pyrido[3′,2′: 4,5]pyrrolo[1,2-a]quinazolin]-10′-yl)piperidin-1-yl)methyl)cyclohexyl)-1H-1,2,3-triazol-1-yl)-3,3-dimethylbutanoyl)-4-hydroxy-N—((S)-1-(4-(4-methylthiazol-5-yl)phenyl)ethyl)pyrrolidine-2-carboxamide], the Dmax (SMARCA2; [1]) was 70 to 90%, the DC50 (SMARCA2; [2]) was 10 to 100 nM and the DC50 (SMARCA4; [3]) was > 1000 nM.
For `Cc1ncsc1-c1ccc([C@H](CN2CCC(F)(F)CC2)NC(=O)[C@@H]2C[C@@H](O)CN2C(=O)[C@@H](n2cc([C@H]3CC[C@H](CN4CCC(c5ccc6c(c5)-n5c(nc(=O)c7c(Cl)cccc75)C6(C)C)CC4)CC3)nn2)C(C)(C)C)cc1` [Compound A94, (2S,4R)-1-((S)-2-(4-((1r,4S)-4-((4-(4-chloro-7,7-dimethyl-5-oxo-5,7-dihydroindolo[1,2-a]quinazolin-10-yl)piperidin-1-yl)methyl)cyclohexyl)-1H-1,2,3-triazol-1-yl)-3,3-dimethylbutanoyl)-N—((R)-2-(4,4-difluoropiperidin-1-yl)-1-(4-(4-methylthiazol-5-yl)phenyl)ethyl)-4-hydroxypyrrolidine-2-carboxamide], the DC50 (SMARCA2; [2]) was < 10 nM, the Dmax (SMARCA2; [4]) was > 90% and the DC50 (SMARCA4; [3]) was > 1000 nM. The Dmax (SMARCA4; [5]) was < 50%.
With `Cc1ncsc1-c1ccc([C@H](C)NC(=O)[C@@H]2C[C@@H](O)CN2C(=O)[C@@H](n2cc([C@H]3C[C@H](CN4CCC(c5ccc6c(c5)C5(CCCCC5)c5nc(=O)c7c(Br)cccc7n5-6)CC4)C3)nn2)C(C)(C)C)cc1` [Compound A61, (2S,4R)-1-((S)-2-(4-((1r,3S)-3-((4-(4′-bromo-5′-oxo-5′H-spiro[cyclohexane-1,7′-indolo[1,2-a]quinazolin]-9′-yl)piperidin-1-yl)methyl)cyclobutyl)-1H-1,2,3-triazol-1-yl)-3,3-dimethylbutanoyl)-4-hydroxy-N—((S)-1-(4-(4-methylthiazol-5-yl)phenyl)ethyl)pyrrolidine-2-carboxamide] the “SMARC A2 Hela HiBit Dmax (%)” value (SMARCA2; [6]) was “A (A (>90% degradation))”, the DC50 (SMARCA2; [7]) was < 100 nM and the “SMARC A4 Hela HiBit Dmax(%)” value (SMARCA4; [3]) was “A (A (>90% degradation))”. For the same compound, the DC50 (SMARCA4) was < 100 nM.
In the case of `Cc1ncsc1-c1ccc([C@H](CN2CCOCC2)NC(=O)[C@@H]2C[C@@H](O)CN2C(=O)[C@@H](NC(=O)C23CCC(CN4CCC(c5ccc6c(c5)C5(CCCCC5)c5nc(=O)c7c(Br)cccc7n5-6)CC4)(CC2)CC3)C(C)(C)C)cc1` [Compound A28, (2S,4R)-1-((S)-2-(4-((4-(4′-bromo-5′-oxo-5′H-spiro[cyclohexane-1,7′-indolo[1,2-a]quinazolin]-9′-yl)piperidin-1-yl)methyl)bicyclo[2.2.2]octane-1-carboxamido)-3,3-dimethylbutanoyl)-4-hydroxy-N—((R)-1-(4-(4-methylthiazol-5-yl)phenyl)-2-morpholinoethyl)pyrrolidine-2-carboxamide], the “SMARC A2 Hela HiBit Dmax (%)” value (SMARCA2; [6]) is reported as “B (B (70-90% degradation))”, the DC50 (SMARCA2; [7]) is reported as < 100 nM and the “SMARC A4 Hela HiBit Dmax(%)” value (SMARCA4; [3]) is reported as “C (C (50-69% degradation))”. It also gave a DC50 (SMARCA4) of 100 to 500 nM.
`Cc1ncsc1-c1ccc([C@H](C)NC(=O)[C@@H]2C[C@@H](O)CN2C(=O)[C@@H](n2cc([C@H]3C[C@H](CN4CCC(c5ccc6c(c5)-n5c(nc(=O)c7c(Br)cccc75)C65CCCCC5)CC4)C3)nn2)C(C)(C)C)cc1` [Compound A63, (2S,4R)-1-((S)-2-(4-((1r,3S)-3-((4-(4′-bromo-5′-oxo-5′H-spiro[cyclohexane-1,7′-indolo[1,2-a]quinazolin]-10′-yl)piperidin-1-yl)methyl)cyclobutyl)-1H-1,2,3-triazol-1-yl)-3,3-dimethylbutanoyl)-4-hydroxy-N—((S)-1-(4-(4-methylthiazol-5-yl)phenyl)ethyl)pyrrolidine-2-carboxamide] was tested, and the “SMARC A2 Hela HiBit Dmax (%)” value (SMARCA2; [6]) was “A (A (>90% degradation))”, the DC50 (SMARCA2; [7]) was < 100 nM and the “SMARC A4 Hela HiBit Dmax(%)” value (SMARCA4; [3]) was “B (B (70-90% degradation))”. For the same compound, the DC50 (SMARCA4) was < 100 nM.
